Assay results published in US20260078103A1, “ISOQUINOLONES AS PI3K INHIBITORS” (OnKure, Inc., priority 2022, published 2026).
pEC50, pIC50: −log10 of the molar value. Where two headings read alike, the source gives them in different places.

How the values were obtained:
Assay type in all cases: cell-based
[1] = tested on: T47D cells expressing mutant PI3Ka (H1047R); test: In vitro cell proliferation, T47D cells (CellTiter-Glo); details: inhibition of proliferation, read-out: Avg T-47D EC50
Method in brief: (§1)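 EC50 values derive from a four-parameter logistic fit of luminescence-based (CellTiter-Glo) inhibition, referenced to 0.1% DMSO and 10 uM Alpelisib controls. Compound exposure lasted 72 h at 37 °C.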

[2] = tested on: SKBR3 cells express WT PI3Ka; test: In vitro cell proliferation, SKBR3 cells (CellTiter-Glo); details: inhibition of proliferation
Method in brief: as §1

[3] = tested on: phosphorylation of AKT (pAKT) in T47D cells expressing mutant PI3Ka (H1047R); test: In vitro cell pAKT (Ser473) HTRF, T47D cells; details: cellular pAKT, T47D cells, mutant PI3Ka (H1047R), 6 hours, read-out: Avg T-47D IC50
Method in brief: (§2)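 T47D cells (RPMI, 10% FBS, 0.2 units/mL insulin) or SKBR3 cells (McCoy's 5a, 10% FBS) were seeded onto 10-point compound dilutions and incubated 6 h at 37 °C. After lysis, pAKT was detected overnight by HTRF (Eu cryptate/d2). IC50 was fitted from % inhibition relative to 0.1% DMSO and 10 uM alpelisib controls.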

[4] = tested on: phosphorylation of AKT (pAKT) in SKBR3 cells express WT PI3Ka; test: In vitro cell pAKT (Ser473) HTRF, SKBR3 cells; details: cellular pAKT
Method in brief: as §2

## Cc1cc([C@@H](C)Nc2ccc(F)cc2C(=O)O)c2c(F)c(N3CCN(CC(F)(F)F)CC3)n(C)c(=O)c2c1 [Example 41, (R)-5-fluoro-2-((1-(4-fluoro-2,7-dimethyl-1-oxo-3-(4-(2,2,2-trifluoroethyl)piperazin-1-yl)-1,2-dihydroisoquinolin-5-yl)ethyl)amino)benzoic acid]
[1]; Homo sapiens, T47D, 72 h
  pEC50: 6.30 to 9.00
[2]; Homo sapiens, SK-BR-3, 72 h
  pEC50: 4.82 to 5.70
[3]; Homo sapiens, T47D, 6 h
  pIC50: 6.30 to 9.00
[4]; Homo sapiens, SK-BR-3, 6 h
  pIC50: < 4.82

## C[C@@H](Nc1ccccc1C(=O)O)c1cc(F)cc2c(=O)n(C)c(-c3cnc(-c4cc(=O)n(C)cc4F)c(F)c3)cc12 [Example 42, (R)-2-((1-(3-(3,5′-difluoro-1′-methyl-2′-oxo-1′,2′-dihydro-[2,4′-bipyridin]-5-yl)-7-fluoro-2-methyl-1-oxo-1,2-dihydroisoquinolin-5-yl)ethyl)amino)benzoic acid]
[1]; Homo sapiens, T47D, 72 h
  pEC50: 5.70 to 6.30
[2]; Homo sapiens, SK-BR-3, 72 h
  pEC50: < 4.82
[3]; Homo sapiens, T47D, 6 h
  pIC50: 5.70 to 6.30
[4]; Homo sapiens, SK-BR-3, 6 h
  pIC50: < 4.82

## Cc1cc([C@@H](C)Nc2ccccc2C(=O)O)c2cc(C3CC3)n(C)c(=O)c2c1 [Example 43, (R)-2-((1-(3-cyclopropyl-2,7-dimethyl-1-oxo-1,2-dihydroisoquinolin-5-yl)ethyl)amino)benzoic acid]
[1]; Homo sapiens, T47D, 72 h
  pEC50: 6.30 to 9.00
[2]; Homo sapiens, SK-BR-3, 72 h
  pEC50: < 4.82
[3]; Homo sapiens, T47D, 6 h
  pIC50: 6.30 to 9.00
[4]; Homo sapiens, SK-BR-3, 6 h
  pIC50: < 4.82

## CCON1CC2CCC(C1)N2c1cc2c([C@@H](C)Nc3ccccc3C(=O)O)cc(F)cc2c(=O)n1C [Example 44, 2-(((1R)-1-(3-(3-ethoxy-3,8-diazabicyclo[3.2.1]octan-8-yl)-7-fluoro-2-methyl-1-oxo-1,2-dihydroisoquinolin-5-yl)ethyl)amino)benzoic acid]
[1]; Homo sapiens, T47D, 72 h
  pEC50: 6.30 to 9.00
[2]; Homo sapiens, SK-BR-3, 72 h
  pEC50: 4.82 to 5.70
[3]; Homo sapiens, T47D, 6 h
  pIC50: 6.30 to 9.00
[4]; Homo sapiens, SK-BR-3, 6 h
  pIC50: 4.82 to 5.70

## C[C@@H](Nc1ccccc1C(=O)O)c1cc(F)cc2c(=O)n(C)c(-c3cnc(C4(C5CC5)CC4)nc3)cc12 [Example 47, (R)-2-((1-(3-(2-([1,1′-bi(cyclopropan)]-1-yl)pyrimidin-5-yl)-7-fluoro-2-methyl-1-oxo-1,2-dihydroisoquinolin-5-yl)ethyl)amino)benzoic acid]
[1]; Homo sapiens, T47D, 72 h
  pEC50: 6.30 to 9.00
[2]; Homo sapiens, SK-BR-3, 72 h
  pEC50: < 4.82
[3]; Homo sapiens, T47D, 6 h
  pIC50: 6.30 to 9.00
[4]; Homo sapiens, SK-BR-3, 6 h
  pIC50: < 4.82

## C[C@@H](Nc1ccccc1C(=O)O)c1cc(F)cc2c(=O)n(C)c(-c3cnc(Oc4cnn(C(F)F)c4)c(F)c3)cc12 [Example 48, (R)-2-((1-(3-(6-((1-(difluoromethyl)-1H-pyrazol-4-yl)oxy)-5-fluoropyridin-3-yl)-7-fluoro-2-methyl-1-oxo-1,2-dihydroisoquinolin-5-yl)ethyl)amino)benzoic acid]
[1]; Homo sapiens, T47D, 72 h
  pEC50: 5.70 to 6.30
[2]; Homo sapiens, SK-BR-3, 72 h
  pEC50: < 4.82
[3]; Homo sapiens, T47D, 6 h
  pIC50: 6.30 to 9.00
[4]; Homo sapiens, SK-BR-3, 6 h
  pIC50: < 4.82

## Cc1cc(C(C)Nc2ccccc2C(=O)O)c2cc(N3CC(Cl)C3)n(C)c(=O)c2c1 (centres unmarked) [Example 55]
[1]; Homo sapiens, T47D, 72 h
  pEC50: 5.70 to 6.30
[2]; Homo sapiens, SK-BR-3, 72 h
  pEC50: < 4.82
[3]; Homo sapiens, T47D, 6 h
  pIC50: 6.30 to 9.00
[4]; Homo sapiens, SK-BR-3, 6 h
  pIC50: < 4.82

## Cc1cc(C(C)Nc2ccccc2C(=O)O)c2cc(N3CC4(C3)CC(F)(F)C4)n(C)c(=O)c2c1 (centres unmarked) [Example 56]
[1]; Homo sapiens, T47D, 72 h
  pEC50: 4.82 to 5.70
[2]; Homo sapiens, SK-BR-3, 72 h
  pEC50: < 4.82
[3]; Homo sapiens, T47D, 6 h
  pIC50: 5.70 to 6.30
[4]; Homo sapiens, SK-BR-3, 6 h
  pIC50: < 4.82

## Cc1cc(C(C)Nc2ccccc2C(=O)O)c2cc(N3CC4(CC(C(F)(F)F)C4)C3)n(C)c(=O)c2c1 (centres unmarked) [Example 57]
[1]; Homo sapiens, T47D, 72 h
  pEC50: 4.82 to 5.70
[2]; Homo sapiens, SK-BR-3, 72 h
  pEC50: < 4.82
[3]; Homo sapiens, T47D, 6 h
  pIC50: 6.30 to 9.00
[4]; Homo sapiens, SK-BR-3, 6 h
  pIC50: < 4.82

## Cc1cc(C(C)Nc2ccccc2C(=O)O)c2cc(N3CCn4c(C)nnc4C3)n(C)c(=O)c2c1 (centres unmarked) [Example 58]
[1]; Homo sapiens, T47D, 72 h
  pEC50: < 4.82
[2]; Homo sapiens, SK-BR-3, 72 h
  pEC50: < 4.82
[3]; Homo sapiens, T47D, 6 h
  pIC50: < 4.82
[4]; Homo sapiens, SK-BR-3, 6 h
  pIC50: < 4.82

## Cc1cc(C(C)Nc2ccccc2C(=O)O)c2cc(N3CCN(C)CC3)n(C)c(=O)c2c1 (centres unmarked) [Example 59]
[1]; Homo sapiens, T47D, 72 h
  pEC50: 5.70 to 6.30
[2]; Homo sapiens, SK-BR-3, 72 h
  pEC50: < 4.82
[3]; Homo sapiens, T47D, 6 h
  pIC50: 5.70 to 6.30
[4]; Homo sapiens, SK-BR-3, 6 h
  pIC50: < 4.82

## Cc1cc(C(C)Nc2ccccc2C(=O)O)c2cc(N3CCN(CC(F)(F)F)CC3)n(C)c(=O)c2c1 (centres unmarked) [Example 61]
[1]; 72 hours
  pEC50: 5.70 to 6.30
[2]; 72 hours
  pEC50: < 4.82
[3]
  pIC50: 6.30 to 9.00
[4]; 6 hours
  pIC50: < 4.82

## Cc1cc(C(C)Nc2ccccc2C(=O)O)c2cc(N3CCC4(CCCC4)CC3)n(C)c(=O)c2c1 (centres unmarked) [Example 62]
[1]; Homo sapiens, T47D, 72 h
  pEC50: 5.70 to 6.30
[2]; Homo sapiens, SK-BR-3, 72 h
  pEC50: < 4.82
[3]; Homo sapiens, T47D, 6 h
  pIC50: 5.70 to 6.30
[4]; Homo sapiens, SK-BR-3, 6 h
  pIC50: < 4.82

## Cc1cc(C(C)Nc2ccccc2C(=O)O)c2cc(N3CCC4(CCC4)CC3)n(C)c(=O)c2c1 (centres unmarked) [Example 63]
[1]; Homo sapiens, T47D, 72 h
  pEC50: 4.82 to 5.70
[2]; Homo sapiens, SK-BR-3, 72 h
  pEC50: < 4.82
[3]; Homo sapiens, T47D, 6 h
  pIC50: 6.30 to 9.00
[4]; Homo sapiens, SK-BR-3, 6 h
  pIC50: < 4.82

## Cc1cc(C(C)Nc2ccccc2C(=O)O)c2cc(N3CC[C@H](c4ccccc4)C3)n(C)c(=O)c2c1 (some centres unmarked) [Example 64]
[1]; Homo sapiens, T47D, 72 h
  pEC50: 5.70 to 6.30
[2]; Homo sapiens, SK-BR-3, 72 h
  pEC50: < 4.82
[3]; Homo sapiens, T47D, 6 h
  pIC50: 6.30 to 9.00
[4]; Homo sapiens, SK-BR-3, 6 h
  pIC50: < 4.82

## Cc1cc(C(C)Nc2ccccc2C(=O)O)c2cc(N3Cc4cccnc4C3)n(C)c(=O)c2c1 (centres unmarked) [Example 65]
[1]; Homo sapiens, T47D, 72 h
  pEC50: 5.70 to 6.30
[2]; Homo sapiens, SK-BR-3, 72 h
  pEC50: < 4.82
[3]; Homo sapiens, T47D, 6 h
  pIC50: 6.30 to 9.00
[4]; Homo sapiens, SK-BR-3, 6 h
  pIC50: < 4.82

## Cc1cc(C(C)Nc2ccccc2C(=O)O)c2cc(N3Cc4ccncc4C3)n(C)c(=O)c2c1 (centres unmarked) [Example 66]
[1]; Homo sapiens, T47D, 72 h
  pEC50: 6.30 to 9.00
[2]; Homo sapiens, SK-BR-3, 72 h
  pEC50: < 4.82
[3]; Homo sapiens, T47D, 6 h
  pIC50: 6.30 to 9.00
[4]; Homo sapiens, SK-BR-3, 6 h
  pIC50: < 4.82

## Cc1cc(C(C)Nc2ccccc2C(=O)O)c2cc(N3Cc4cccc(C(F)(F)F)c4C3)n(C)c(=O)c2c1 (centres unmarked) [Example 67]
[1]; 72 hours
  pEC50: 5.70 to 6.30
[2]; 72 hours
  pEC50: < 4.82
[3]
  pIC50: 6.30 to 9.00
[4]; 6 hours
  pIC50: < 4.82

## Cc1cc(C(C)Nc2ccccc2C(=O)O)c2cc(-c3ccc(C)nc3)n(C)c(=O)c2c1 (centres unmarked) [Example 68]
[1]; Homo sapiens, T47D, 72 h
  pEC50: 5.70 to 6.30
[2]; Homo sapiens, SK-BR-3, 72 h
  pEC50: < 4.82
[3]; Homo sapiens, T47D, 6 h
  pIC50: 6.30 to 9.00
[4]; Homo sapiens, SK-BR-3, 6 h
  pIC50: < 4.82

## Cc1cc(C(C)Nc2ccccc2C(=O)O)c2cc(N3C4CCCC3CC4)n(C)c(=O)c2c1 (centres unmarked) [Example 69]
[1]; Homo sapiens, T47D, 72 h
  pEC50: 5.70 to 6.30
[2]; Homo sapiens, SK-BR-3, 72 h
  pEC50: < 4.82
[3]; Homo sapiens, T47D, 6 h
  pIC50: 6.30 to 9.00
[4]; Homo sapiens, SK-BR-3, 6 h
  pIC50: < 4.82

## Cc1cc(C(C)Nc2ccccc2C(=O)O)c2cc(N3C[C@@H]4[C@@H](C#N)[C@@H]4C3)n(C)c(=O)c2c1 (some centres unmarked) [Example 70]
[1]; Homo sapiens, T47D, 72 h
  pEC50: 5.70 to 6.30
[2]; Homo sapiens, SK-BR-3, 72 h
  pEC50: < 4.82
[3]; Homo sapiens, T47D, 6 h
  pIC50: 5.70 to 6.30
[4]; Homo sapiens, SK-BR-3, 6 h
  pIC50: < 4.82

## Cc1cc(C(C)Nc2ccc(Cl)nc2C(=O)O)c2cc(N3Cc4ccc(F)cc4C3)n(C)c(=O)c2c1 (centres unmarked) [Example 71]
[1]; Homo sapiens, T47D, 72 h
  pEC50: 5.70 to 6.30
[2]; Homo sapiens, SK-BR-3, 72 h
  pEC50: < 4.82
[3]; Homo sapiens, T47D, 6 h
  pIC50: 6.30 to 9.00
[4]; Homo sapiens, SK-BR-3, 6 h
  pIC50: 4.82 to 5.70

## Cc1cc(C(C)Nc2ccccc2C(=O)O)c2cc(N3Cc4cncnc4C3)n(C)c(=O)c2c1 (centres unmarked) [Example 72]
[1]; Homo sapiens, T47D, 72 h
  pEC50: 4.82 to 5.70
[2]; Homo sapiens, SK-BR-3, 72 h
  pEC50: < 4.82
[3]; Homo sapiens, T47D, 6 h
  pIC50: 5.70 to 6.30
[4]; Homo sapiens, SK-BR-3, 6 h
  pIC50: < 4.82
